Measured values reported in patent publication US20230086702A1, “SUBSTITUTED 2-AMINO-PYRAZOLYL-[1,2,4]TRIAZOLO[1,5A]PYRIDINE DERIVATIVES AND USE THEREOF” (The Johns Hopkins University, priority 2019, published 2023).

How the values were obtained:
DLK = molecular target: T1, DLK (Homo sapiens, UniProt Q12852); experiment: DLK biochemical assay (TR-FRET, MKK7 phosphorylation); conditions: DLK catalytic domain, MKK7 substrate, 60 μM ATP
T1 construct: 10 nM DLK, catalytic domain, Carna Biosiences; purchased Carna Biosciences ('Carna Biosiences' [sic])
T1 sequence (Q12852 125-366 limits assumed): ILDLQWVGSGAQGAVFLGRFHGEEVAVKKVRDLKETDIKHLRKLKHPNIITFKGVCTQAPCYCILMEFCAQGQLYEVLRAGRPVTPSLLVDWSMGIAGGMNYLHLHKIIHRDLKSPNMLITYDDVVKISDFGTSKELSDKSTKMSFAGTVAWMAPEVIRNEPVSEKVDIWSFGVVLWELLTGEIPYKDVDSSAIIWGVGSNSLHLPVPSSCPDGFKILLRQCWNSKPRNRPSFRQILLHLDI
Method in brief: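 TR-FRET read-out (ratio of 665 nm acceptor to Eu donor channel) tracks MKK7 T275/S277 phosphorylation by DLK, using Eu-labelled anti-phospho-MKK7 and XL665-labelled anti-His on His-MKK7. Reactions were stopped and detected in pH 7.5 Tris buffer containing 100 mM EDTA, 100 mM NaCl, 200 mM KF and 0.01% Tween 20.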

LZK = molecular target: T2, LZK (Homo sapiens, UniProt O43283); experiment: LZK biochemical assay (TR-FRET, MKK7 phosphorylation); conditions: LZK catalytic domain, MKK7 substrate, 15 μM ATP
T2 construct: 10 nM LZK, catalytic domain, Carna Biosiences in assay buffer; purchased Carna Biosciences ('Carna Biosiences' [sic])
T2 sequence (O43283 168-409 limits assumed): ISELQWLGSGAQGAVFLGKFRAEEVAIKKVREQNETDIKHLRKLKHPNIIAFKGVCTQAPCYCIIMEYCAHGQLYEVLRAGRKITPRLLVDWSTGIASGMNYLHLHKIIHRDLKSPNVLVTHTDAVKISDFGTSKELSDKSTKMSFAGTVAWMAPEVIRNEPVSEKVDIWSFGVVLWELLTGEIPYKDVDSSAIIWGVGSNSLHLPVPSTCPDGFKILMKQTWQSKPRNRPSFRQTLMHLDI

[1] = tested on: retinal ganglion cells (RGCs); experiment: Optic nerve crush, RGC survival (RBPMS staining); type: in vivo, C57B6/J animals; conditions: intravitreal injection of 8 mM, second injection 4 days later, two weeks after optic nerve crush, vs vehicle (FIG. 3)
Description: Inhibition of DLK and LZK can reduce the neuronal injury response and result in the protection of various neuronal populations from degeneration. Cells can be immunostained for p-cJun S73 (p-JUN), which is an indicator of DLK pathway activation. Accordingly, decreased p-JUN staining compared to a control can be indicative of inhibition of DLK pathway activation. RBPMS can be used to mark retinal ganglion cells (RGCs) and show changes in cell survival (e.g., increased RBPMS staining compared to a control can indicate increased cell survival).
Unilateral optic nerve crush was performed on C57B6/J animals between 6 and 8 weeks of age, followed by intravitreal injection of 8 mM of I-106. A second injection was performed 4 days later. Two weeks after optic nerve crush, animals were sacrificed and retinas were immunostained for RBPMS. Confocal microscopy was used to image RGCs and ImageJ was used to quantify the density of RGCs.
Mice were intravitreally injected with 1 μL of vehicle (DMSO), 100 mM I-81, or 300 mM I-81 immediately following optic nerve crush injury. Retinas were extracted 1 month later and immunofluorescently labelled with anti-RBPMS to mark RGCs, anti-phosphorylated JUN (P-JUN) to examine DLK/JNK pathway induction, and Tuj1 to visualize axons (see FIG. 9).

retina = experiment: Retinal structure and function after intravitreal injection (optical coherence tomography, electroretinographs); type: in vivo, mice; conditions: 7 days following intravitreal injection of 10 mM, vs vehicle (DMSO) (FIG. 10, 11A, 11B)
Description: Optical coherence tomography images of mice 7 days following intravitreal injections of either vehicle (DMSO) or 10 mM I-81 were obtained (FIG. 10). Retinal electroretinographs were also acquired (FIGS. 11A and 11B).

[2] = tested on: human stem cell derived RGCs; experiment: Protection of human stem cell derived RGCs in models of mitochondrial injury (FIG. 4); type: cell-based
Description: (§1) H7 or H9 human embryonic stem cells or patient-derived induced pluripotent stem cells were modified to express mouse Thy1.2 and tdTomato from the BRN3B locus (Sluch et al., 2017). To produce RGCs, stem cells were dissociated to single cells and plated on Matrigel (Corning, USA) coated plates at a density of 52.6 K/cm^2 in mTeSR1 with […] blebbistatin, a time point designated as day minus 1 (d-1). One day after plating, mTeSR1 was completely exchanged for N2B27 media [1:1 mix of DMEM/F12 and Neurobasal with GlutaMAX Supplement, antibiotic-antimycotic, 1% N2 Supplement, and 2% B27 Supplement (all from ThermoFisher Scientific)] to start differentiation; this day was designated as day 0 (d0). Small molecules were added to the cells on day 1 (dl), 24 hours after d0. […] After 35 days in culture, when abundant RGCs have appeared (indicated by red fluorescence), cultures were dissociated into a single cell suspension. […]
In order to test compounds, RGCs were plated in 96- or 384-well Nunclon or Falcon dishes. […] For both sets of RGCs, increasing doses of the kinase inhibitors was added at the time of injury and survival was quantitated after 72 hours using CellTiter-Glo (Promega, Madison) and measuring relative light units (RLU) or by staining cultures with conventional viability dyes (i.e. ethidium homodimer exclusion, calcein AM uptake) and measuring survival by automated image analysis.

hRGCs = experiment: hRGC survival under rotenone or CCCP (Cell Titer Glo); type: cell-based, human; conditions: 1 uM rotenone or 30 uM CCCP, increasing doses, 72 hours (FIG. 4)
Description: as §1, with “d0. Small molecule addition was done in fresh N2B27 media. Cells were fed with a full exchange of N2B27 media every other day unless a small molecule was to be removed or added on that day of differentiation, requiring daily feeding.” for “d0.”
hRGCs were challenged with (A) 1 uM rotenone or (B) 30 uM CCCP in the presence of increasing doses of I-84 for 72 hours. Cell survival was quantified using Cell Titer Glo, an ATP-based luminescent assay.

CC[C@H](C)NC(=O)c1cc(-c2cnn([C@H](c3ccc(C(F)(F)F)nc3)C(C)C)c2)cc2nc(N)nn12 (single isomer, unassigned) [Example I-106]
IC50 (DLK): 0.001 µM | IC50 (LZK): 0.0016 µM | survival of RGCs (density of RBPMS) [1]: promoted survival of RGCs following optic nerve crush

CC[C@H](C)NC(=O)c1cc(-c2cnn(C3CN(Cc4ccccc4)C3)c2)cn2nc(N)nc12 [Example I-5]
IC50 (DLK): 0.055 µM | IC50 (LZK): 0.015 µM

CC[C@H](C)NC(=O)c1cc(-c2cnn([C@H](c3ccc(C(F)(F)F)nc3)C3CCN(C(=O)OC(C)(C)C)CC3)c2)cn2nc(N)nc12 [Example I-81, tert-Butyl 4-{(4-{2-amino-8-[(2S)-butan-2-ylcarbamoyl][1,2,4]triazolo[1,5-a]pyridin-6-yl}-1H-pyrazol-1-yl)[6-(trifluoromethyl)pyridin-3-yl]methyl}piperidine-1-carboxylate]
IC50 (DLK): 0.0066 µM | IC50 (LZK): 0.0085 µM | structural or functional toxicity to the retina (retina): did not induce structural or functional toxicity to the retina

CC[C@H](C)NC(=O)c1cc(-c2cnn([C@H](c3ccc(C(F)(F)F)nc3)C3CCN(C(C)=O)CC3)c2)cn2nc(N)nc12 [Example I-84, 6-(1-{(1-Acetylpiperidin-4-yl)[6-(trifluoromethyl)pyridin-3-yl]methyl}-1H-pyrazol-4-yl)-2-amino-N-[(2S)-butan-2-yl][1,2,4]triazolo[1,5-a]pyridine-8-carboxamide]
IC50 (DLK): 0.0005 µM | IC50 (LZK): 0.0012 µM | protection of human stem cell derived RGCs [2]: protective | cell survival of hRGCs (hRGCs): protective to human stem cell derived RGCs in models of mitochondrial injury

Nc1nc2c(C(=O)NC3CCC3)cc(-c3cnn(Cc4ccc(F)cc4)c3)cn2n1 [Example I-132, 2-Amino-N-cyclobutyl-6-{1-[(4-fluorophenyl)methyl]-1H-pyrazol-4-yl}[1,2,4]triazolo[1,5-a]pyridine-8-carboxamide]
IC50 (DLK): 0.085 µM | IC50 (LZK): 0.24 µM

tert-Butyl 4-{(4-{2-amino-8-[(2S)-butan-2-ylcarbamoyl][1,2,4]triazolo[1,5-a]pyridin-6-yl}-1H-pyrazol-1-yl)[6-(trifluoromethyl)pyridin-3-yl]methyl}piperidine-1-carboxylate [Example I-80]
IC50 (DLK): 0.045 µM | IC50 (LZK): 0.04 µM
